In the supplement of paper PMC10307832 one finds relative viability data, which are given here for 5 compounds.

One assay concerns EPLC-272H. The assay is described as follows: relative viability (nuclei count vs DMSO), 5 days (fraction); higher = more cells survive. Conditions: first compound 2 µM. Put shortly: (§1)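 Relative viability was taken as the ratio of nuclei in treated wells to nuclei in vehicle wells. Lung cancer cell lines in 1536-well plates received compounds by pin tool one day after seeding, either one drug alone or a fixed anchor-drug dose plus five library-drug doses (not always all listed) in √10 steps. Nuclei were counted on 4× images after 5 days of treatment, and values are medians of duplicate plates.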
In turn, `COCC1(CO)C(=O)C2CCN1CC2` (stereo not drawn) [PRIMA-1MET] + Cc1cc(Nc2cc(N3CCN(C)CC3)nc(Sc3ccc(NC(=O)C4CC4)cc3)n2)n[nH]1 [Tozasertib] (partner 0.1 µM) came in with a relative viability of 0.186.

In the case of `COCC1(CO)C(=O)C2CCN1CC2` (stereo not drawn) [PRIMA-1MET] + COc1cc2c(Oc3ccc(NC(=O)C4(C(=O)Nc5ccc(F)cc5)CC4)cc3F)ccnc2cc1OCCCN1CCOCC1 [Foretinib] (partner 0.25 µM), the relative viability is 0.603.

`COCC1(CO)C(=O)C2CCN1CC2` (stereo not drawn) [PRIMA-1MET] + COc1cccc2cc(-c3nc([C@H]4CC[C@H](C(=O)O)CC4)n4ncnc(N)c34)[nH]c12 [OSI-027] (partner 0.5 µM) had a relative viability of 0.235.

Take `COCC1(CO)C(=O)C2CCN1CC2` (stereo not drawn) [PRIMA-1MET] + N=C(N)NC(=N)NCCc1ccccc1 [Phenformin] (partner 250 µM): the relative viability was determined as 0.286.

As to `COCC1(CO)C(=O)C2CCN1CC2` (stereo not drawn) [PRIMA-1MET] + Cc1nc(Nc2ncc(C(=O)Nc3c(C)cccc3Cl)s2)cc(N2CCN(CCO)CC2)n1 [Dasatinib] (partner 0.075 µM), the relative viability came out at 0.349.

The assay is the same for the next values; noted with them: first compound 6.325 µM.
With `COCC1(CO)C(=O)C2CCN1CC2` (stereo not drawn) [PRIMA-1MET] + Cc1cc(Nc2cc(N3CCN(C)CC3)nc(Sc3ccc(NC(=O)C4CC4)cc3)n2)n[nH]1 [Tozasertib] (partner 0.1 µM), the relative viability was determined as 0.196.

With `COCC1(CO)C(=O)C2CCN1CC2` (stereo not drawn) [PRIMA-1MET] + COc1cc2c(Oc3ccc(NC(=O)C4(C(=O)Nc5ccc(F)cc5)CC4)cc3F)ccnc2cc1OCCCN1CCOCC1 [Foretinib] (partner 0.25 µM), the relative viability is 0.896.

Compound `COCC1(CO)C(=O)C2CCN1CC2` (stereo not drawn) [PRIMA-1MET] + COc1cccc2cc(-c3nc([C@H]4CC[C@H](C(=O)O)CC4)n4ncnc(N)c34)[nH]c12 [OSI-027] (partner 0.5 µM) returned a relative viability of 0.27.

`COCC1(CO)C(=O)C2CCN1CC2` (stereo not drawn) [PRIMA-1MET] + N=C(N)NC(=N)NCCc1ccccc1 [Phenformin] (partner 250 µM) registered a relative viability of 0.314.

With `COCC1(CO)C(=O)C2CCN1CC2` (stereo not drawn) [PRIMA-1MET] + Cc1nc(Nc2ncc(C(=O)Nc3c(C)cccc3Cl)s2)cc(N2CCN(CCO)CC2)n1 [Dasatinib] (partner 0.075 µM), the relative viability is 0.347.

The assay is the same for the next values; noted with them: first compound 20 µM.
The compound `COCC1(CO)C(=O)C2CCN1CC2` (stereo not drawn) [PRIMA-1MET] + Cc1cc(Nc2cc(N3CCN(C)CC3)nc(Sc3ccc(NC(=O)C4CC4)cc3)n2)n[nH]1 [Tozasertib] (partner 0.1 µM) displayed a relative viability of 0.105.

With `COCC1(CO)C(=O)C2CCN1CC2` (stereo not drawn) [PRIMA-1MET] + COc1cc2c(Oc3ccc(NC(=O)C4(C(=O)Nc5ccc(F)cc5)CC4)cc3F)ccnc2cc1OCCCN1CCOCC1 [Foretinib] (partner 0.25 µM), the relative viability came to 0.105.

As for `COCC1(CO)C(=O)C2CCN1CC2` (stereo not drawn) [PRIMA-1MET] + COc1cccc2cc(-c3nc([C@H]4CC[C@H](C(=O)O)CC4)n4ncnc(N)c34)[nH]c12 [OSI-027] (partner 0.5 µM), the relative viability amounted to 0.0689.

`COCC1(CO)C(=O)C2CCN1CC2` (stereo not drawn) [PRIMA-1MET] + N=C(N)NC(=N)NCCc1ccccc1 [Phenformin] (partner 250 µM) had a relative viability of 0.085.

On to `COCC1(CO)C(=O)C2CCN1CC2` (stereo not drawn) [PRIMA-1MET] + Cc1nc(Nc2ncc(C(=O)Nc3c(C)cccc3Cl)s2)cc(N2CCN(CCO)CC2)n1 [Dasatinib] (partner 0.075 µM), for which the relative viability turned out to be 0.0979.

A further assay has as its system IA-LM. Described as above. To be noted: first compound 0.2 µM. Put shortly: as §1
In turn, `COCC1(CO)C(=O)C2CCN1CC2` (stereo not drawn) [PRIMA-1MET] + COc1cc2c(Oc3ccc(NC(=O)C4(C(=O)Nc5ccc(F)cc5)CC4)cc3F)ccnc2cc1OCCCN1CCOCC1 [Foretinib] (partner 0.25 µM) came in with a relative viability of 1.07.

Still in this assay, the particulars now being: first compound 0.6325 µM.
`COCC1(CO)C(=O)C2CCN1CC2` (stereo not drawn) [PRIMA-1MET] + COc1cc2c(Oc3ccc(NC(=O)C4(C(=O)Nc5ccc(F)cc5)CC4)cc3F)ccnc2cc1OCCCN1CCOCC1 [Foretinib] (partner 0.25 µM) yielded a relative viability of 1.12.

The same assay, now with this note: first compound 2 µM.
Consider `COCC1(CO)C(=O)C2CCN1CC2` (stereo not drawn) [PRIMA-1MET] + COc1cc2c(Oc3ccc(NC(=O)C4(C(=O)Nc5ccc(F)cc5)CC4)cc3F)ccnc2cc1OCCCN1CCOCC1 [Foretinib] (partner 0.25 µM), for which the relative viability came out at 1.35.

The assay is the same for the next values; noted with them: first compound 6.325 µM.
As for `COCC1(CO)C(=O)C2CCN1CC2` (stereo not drawn) [PRIMA-1MET] + COc1cc2c(Oc3ccc(NC(=O)C4(C(=O)Nc5ccc(F)cc5)CC4)cc3F)ccnc2cc1OCCCN1CCOCC1 [Foretinib] (partner 0.25 µM), the relative viability was 1.06.

Staying with this assay, now noted: first compound 20 µM.
Turning to `COCC1(CO)C(=O)C2CCN1CC2` (stereo not drawn) [PRIMA-1MET] + COc1cc2c(Oc3ccc(NC(=O)C4(C(=O)Nc5ccc(F)cc5)CC4)cc3F)ccnc2cc1OCCCN1CCOCC1 [Foretinib] (partner 0.25 µM), the relative viability turned out to be 1.07.

A further assay concerns NCI-H1703. Described as above. Conditions: first compound 0.2 µM. Put shortly:
as §1
Take `COCC1(CO)C(=O)C2CCN1CC2` (stereo not drawn) [PRIMA-1MET] + COc1cc2c(Oc3ccc(NC(=O)C4(C(=O)Nc5ccc(F)cc5)CC4)cc3F)ccnc2cc1OCCCN1CCOCC1 [Foretinib] (partner 0.25 µM): the relative viability came out at 0.512.

Staying with this assay, now noted: first compound 0.6325 µM.
In turn, `COCC1(CO)C(=O)C2CCN1CC2` (stereo not drawn) [PRIMA-1MET] + COc1cc2c(Oc3ccc(NC(=O)C4(C(=O)Nc5ccc(F)cc5)CC4)cc3F)ccnc2cc1OCCCN1CCOCC1 [Foretinib] (partner 0.25 µM) gave a relative viability of 0.368.

Staying with this assay, now noted: first compound 2 µM.
Take `COCC1(CO)C(=O)C2CCN1CC2` (stereo not drawn) [PRIMA-1MET] + COc1cc2c(Oc3ccc(NC(=O)C4(C(=O)Nc5ccc(F)cc5)CC4)cc3F)ccnc2cc1OCCCN1CCOCC1 [Foretinib] (partner 0.25 µM): the relative viability amounted to 0.353.

The assay is the same for the next values; noted with them: first compound 6.325 µM.
`COCC1(CO)C(=O)C2CCN1CC2` (stereo not drawn) [PRIMA-1MET] + COc1cc2c(Oc3ccc(NC(=O)C4(C(=O)Nc5ccc(F)cc5)CC4)cc3F)ccnc2cc1OCCCN1CCOCC1 [Foretinib] (partner 0.25 µM) registered a relative viability of 0.388.

Staying with this assay, now noted: first compound 20 µM.
Consider `COCC1(CO)C(=O)C2CCN1CC2` (stereo not drawn) [PRIMA-1MET] + COc1cc2c(Oc3ccc(NC(=O)C4(C(=O)Nc5ccc(F)cc5)CC4)cc3F)ccnc2cc1OCCCN1CCOCC1 [Foretinib] (partner 0.25 µM), for which the relative viability is 0.0682.

The next assay relates to COR-L23. The assay is described as above. Conditions: first compound 0.2 µM. In a few lines: as §1
The compound `COCC1(CO)C(=O)C2CCN1CC2` (stereo not drawn) [PRIMA-1MET] + Cc1cc(Nc2cc(N3CCN(C)CC3)nc(Sc3ccc(NC(=O)C4CC4)cc3)n2)n[nH]1 [Tozasertib] (partner 0.1 µM) had a relative viability of 0.223.

Regarding `COCC1(CO)C(=O)C2CCN1CC2` (stereo not drawn) [PRIMA-1MET] + COc1cc2c(Oc3ccc(NC(=O)C4(C(=O)Nc5ccc(F)cc5)CC4)cc3F)ccnc2cc1OCCCN1CCOCC1 [Foretinib] (partner 0.25 µM), the relative viability came to 1.23.

Consider `COCC1(CO)C(=O)C2CCN1CC2` (stereo not drawn) [PRIMA-1MET] + COc1cccc2cc(-c3nc([C@H]4CC[C@H](C(=O)O)CC4)n4ncnc(N)c34)[nH]c12 [OSI-027] (partner 0.5 µM), for which the relative viability was found to be 0.892.
